In patent US10618902B2, “Substituted pyrido[2,3-d]pyrimidines as inhibitors of protein kinases” (Celgene CAR LLC, priority 2013, dated 2020):
“Also recorded” adds a separate entry of the source.

Target: pFGFR4 in MDA-MB-453 cells (Homo sapiens (Human), UniProt P22455, Y367C)
Assay: Washout experiment (duration of pFGFR4 inhibition)
Assay type: cell-based
Settings: 1000-2000 nM for 1 hr, washed, up to 24 hr
Description: The cells were allowed to settle down for 4 hrs and were then maintained in low-serum (0.1% FBS) media overnight.
The following morning, the media was removed and the cells were treated with 1000-2000 nM of test compound in low-serum media for 1 hr. The cells were washed free of test compound (3×) with PBS (Invitrogen). One set of cells was immediately lysed as indicated above as the 0 hr time point. The remaining cells were incubated with the appropriate complete growth media (10-20% FBS) for 1, 2, 4, 8, 16 (in certain circumstances) and 24 hr. DMSO (0.5%) controls were collected at all time points.

pFGFR4 in MDA-MB-453 cells, sequence (P22455 22-802 Y367C): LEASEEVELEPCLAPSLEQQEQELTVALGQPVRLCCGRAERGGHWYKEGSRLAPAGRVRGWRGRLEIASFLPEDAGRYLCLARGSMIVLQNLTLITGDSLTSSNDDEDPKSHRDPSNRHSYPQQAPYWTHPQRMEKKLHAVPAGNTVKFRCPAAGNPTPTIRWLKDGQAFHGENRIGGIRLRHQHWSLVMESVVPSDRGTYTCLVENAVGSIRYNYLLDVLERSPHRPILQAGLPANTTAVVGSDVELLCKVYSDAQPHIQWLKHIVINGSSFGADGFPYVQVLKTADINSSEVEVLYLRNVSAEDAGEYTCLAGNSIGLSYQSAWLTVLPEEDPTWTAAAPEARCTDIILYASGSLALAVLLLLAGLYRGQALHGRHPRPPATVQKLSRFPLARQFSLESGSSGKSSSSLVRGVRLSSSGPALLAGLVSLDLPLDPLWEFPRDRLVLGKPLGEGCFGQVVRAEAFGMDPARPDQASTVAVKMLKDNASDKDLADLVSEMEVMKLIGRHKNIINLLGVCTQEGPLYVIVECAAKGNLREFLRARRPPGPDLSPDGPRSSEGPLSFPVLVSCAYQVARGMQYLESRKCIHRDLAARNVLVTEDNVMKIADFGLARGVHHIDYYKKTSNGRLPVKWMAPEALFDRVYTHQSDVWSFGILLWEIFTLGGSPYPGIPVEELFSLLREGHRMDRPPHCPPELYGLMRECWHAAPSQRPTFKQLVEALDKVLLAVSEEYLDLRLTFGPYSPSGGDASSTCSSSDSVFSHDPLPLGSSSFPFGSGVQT

SMILES	duration of action against pFGFR4 signalling after washout
C=CC(=O)NC1CCCCC1Nc1ncc2c(n1)N(Cc1cscn1)C(=O)N(c1c(Cl)c(OC)cc(OC)c1Cl)C2 (racemic) [Compound I-69]	prolonged duration of action; also recorded: prolonged inhibition of autophosphorylation of FGFR4
C=CC(=O)Nc1ccccc1Nc1ncc2c(n1)N(Cc1cccc(NC(=O)CC)c1)C(=O)N(c1c(Cl)c(OC)cc(OC)c1Cl)C2 [Compound I-1]	has PDA; also recorded: prolonged duration of action
CCC(=O)Nc1cccc(CN2C(=O)N(c3c(Cl)c(OC)cc(OC)c3Cl)Cc3cnc(Nc4ccccc4NC(=O)CC)nc32)c1 [Compound I-234]	does not have PDA; also recorded: does not show prolonged duration of action
